Laboratory results as given in patent publication US20150328280A1, “ALISPORIVR FOR TREATMENT OF HEPATITIS C VIRUS INFECTION” (priority 2011, published 2015).

Assays:
HCV genotype 1 [1] = test: phase 2 study of genotype 1 treatment-naive patients, sustained virologic response; assay type: in vivo, human; conditions: alisporivir 600 mg BID for one week, then 600 mg QD, 48 week treatment, combined with peg-IFNa2a
From the text: The virological response parameters are: rapid virologic response at treatment week 4 (RVR 4) defined by undetectable serum HCV-RNA at treatment week 4; early virological response (EVR), defined by at least 2 log10 IU/mL reduction in HCV-RNA compared to baseline (partial EVR) or undetectable serum HCV-RNA (complete EVR) at treatment week 12; sustained virological response (SVR24), defined as absence of HCV-RNA from serum by a sensitive Polymerase Chain Reaction (PCR) assay 24 weeks following end of therapy or the HCV RNA is undetectable (by LOD) 24 weeks after end of treatment; End of Treatment Response (ETR): HCV RNA undetectable (by LOD) at treatment end (completed or prematurely discontinued).

HCV genotype 1 [2] = test: study of alisporivir in HCV Genotype 1 non responder patients, decline in HCV RNA; assay type: in vivo, human; conditions: first week of treatment, with peg-IFNα2a plus RBV
Experimental: The efficacy of the therapy regimen may be monitored using standard protocols. Treatment may be followed by determinations of HCV in serum and measurement of serum ALT (alanine-aminotransferase) levels. For example, the patients may be assessed for the presence of HCV RNA in their plasma. HCV RNA (IU/mL) can be measured at regular intervals during the treatment, e.g., at Day 1 (pre-dose and 4, 8, and 12 hours post-dose) and pre-dose at Day 2, Day 3, Day 8, Day 15, Day 29, and at Week 12, Week 24, Week 36, Week 48, Week 72 (when applicable), and at follow up. In addition, the HCV strains in the patient can be sequenced and assessed for identification of mutations selecting for resistance.
In addition, study of the use of alisporivir in HCV Genotype 1 non responder patients addressed the utility of a 400 mg BID dose regimen versus the same total daily dose given once daily (800 mg QD) during the first week of treatment, both with peg-IFNα2a plus RBV, and the possible relationships between Cmax, AUC, or Cmin and antiviral effect at the end of that treatment period. In this hard to treat patient population, the 400 mg BID dose provided greater decline in HCV RNA from baseline (−1.41 log10 IU/m1) than the 800 mg QD dose (−0.70 log10 IU/ml). […]

[3] = boceprevir recipients; cited from earlier work

| Compound | rates of achievement of sustained virologic response (SVR) versus peg-IFNα2a (HCV genotype 1 [1]) | decline in HCV RNA from baseline (HCV genotype 1 [2]; 400 mg BID) | decline in HCV RNA from baseline (HCV genotype 1 [2]; 800 mg QD) | treatment-emergent anemia versus pegylated interferon and ribavirin recipients [3] |
| --- | --- | --- | --- | --- |
| C/C=C/C[C@@H](C)[C@@H](O)[C@H]1C(=O)N[C@@H](CC)C(=O)N(C)[C@H](C)C(=O)N(CC)[C@@H](C(C)C)C(=O)N[C@@H](C(C)C)C(=O)N(C)[C@@H](CC(C)C)C(=O)N[C@@H](C)C(=O)N[C@H](C)C(=O)N(C)[C@@H](CC(C)C)C(=O)N(C)[C@@H](CC(C)C)C(=O)N(C)[C@@H](C(C)C)C(=O)N1C [alisporivir, Alisporivir] | superior | −1.41 log10 IU/m1 | −0.70 log10 IU/ml | – |
| CC(C)(C)NC(=O)N[C@H](C(=O)N1C[C@H]2[C@@H]([C@H]1C(=O)NC(CC1CCC1)C(=O)C(N)=O)C2(C)C)C(C)(C)C (stereo partly shown) [boceprevir] | – | – | – | significantly higher |
